According to patent publication US20250188088A1, “COMPOUND AND USE THEREOF” (ONQUALITY PHARMACEUTICALS CHINA LTD., priority 2022, published 2025):
Values after ≈ are worked out from the molar mass of the structure shown. Like-named read-outs stand apart in the source and are kept apart here.

What was measured:
[1] = Thermodynamic solubility assay (PBS pH 6.5; isopropyl myristate); format: physicochemical; conditions: thermodynamic from solid
Experimental: Thermodynamic Solubility Assay
Weigh not less than 2 mg of the sample powder into a Whatman Mini-UniPrep vial. If it is required to test the thermodynamic solubility of samples in multiple buffers, a separate vial is needed for each test; add 450 μL of buffer to each Whatman Mini-UniPrep vial, respectively; after that, install the piston cap of Whatman Mini-UniPrep and press it above the liquid level, so that the filter is in contact with the buffer during shaking; shake the solubility sample by vortexing for 1 minute.
Inject 3 UV standard solutions from low to high concentrations into the HPLC, then inject the diluent and supernatant of the test compound, with two replicates of test sample; and integrate the UV peaks. Simulate a standard curve and calculate the thermodynamic solubility of the sample.

[2] = system: rash caused by small molecule EGFR inhibitors; experiment: Prevention of rash caused by small molecule EGFR inhibitors, topical ointment, rat model; format: in vivo, SD rats
In short: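 Female SD rats (~200 g, dorsal hair shaved, 10/group) dosed daily by gavage with small-molecule EGFR inhibitors; compound ointment or blank matrix applied once daily to ~3 cm×3 cm of back, left 4 h, then wiped off. Repeated until obvious rash in controls; control rate = % of treated rats with milder rash than controls.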

In the case of `C[C@@H]1CCN(C(=O)CC#N)C[C@@H]1N(C)c1ncnc2c1ccn2C(=O)N(C)CCOC(=O)C1CCCO1` (stereo partly drawn) [Compound A7], the solubility thermodynamic at 24 h ([1]; aqueous buffer, PBS buffer pH 6.5, about 25° C., read-out: Thermodynamic Solubility pH = 6.5) is reported as 4390 µg/mL (≈ 8.58 mM), the solubility thermodynamic at 24 h ([1]; oil or lipid, isopropyl myristate as vehicle, about 25° C., read-out: Thermodynamic Solubility in Isopropyl Myristate) is reported as 375 µg/mL (≈ 0.733 mM) and the “Control Rate” value ([2]; Afatinib 40 mg/kg once a day, ointment 0.1 wt% once a day, 14 days) is reported as 20%. The “Control Rate” value ([2]; Afatinib 40 mg/kg once a day, ointment 0.3 wt% once a day, 14 days) was 50%, the “Control Rate” value ([2]; Afatinib 40 mg/kg once a day, ointment 1.0 wt% once a day, 14 days) was 70% and the “Control Rate” value ([2]; Afatinib 40 mg/kg once a day, ointment 3.0 wt% once a day, 14 days) was 75%. For the same molecule, the “Control Rate” value ([2]; Afatinib 40 mg/kg once a day, ointment 5.0 wt% once a day, 14 days) was 80%, the “Control Rate” value ([2]; Afatinib 40 mg/kg once a day, ointment 10.0 wt% once a day, 14 days) was 60% and the “Control Rate” value ([2]; Dacomitinib 10 mg/kg once a day, ointment 1.0 wt% once a day, 12 days) was 40%. The “Control Rate” value ([2]; Dacomitinib 10 mg/kg once a day, ointment 5.0 wt% once a day, 12 days) was 80%, the “Control Rate” value ([2]; EAI045 80 mg/kg once a day, ointment 1.0 wt% once a day, 11 days) was 30% and the “Control Rate” value ([2]; EAI045 80 mg/kg once a day, ointment 10.0 wt% once a day, 11 days) was 60%. For the same molecule, the “Control Rate” value ([2]; Gefitinib 80 mg/kg twice a day, ointment 0.3 wt% once a day, 15 days) was 10%, the “Control Rate” value ([2]; Gefitinib 80 mg/kg twice a day, ointment 1.0 wt% once a day, 15 days) was 50% and the “Control Rate” value ([2]; Gefitinib 80 mg/kg twice a day, ointment 3.0 wt% once a day, 15 days) was 60%. For the same molecule, the “Control Rate” value ([2]; Gefitinib 80 mg/kg twice a day, ointment 5.0 wt% once a day, 15 days) was 60%, the “Control Rate” value ([2]; Osimertinib 60 mg/kg twice a day, ointment 0.3 wt% once a day, 10 days) was 20% and the “Control Rate” value ([2]; Osimertinib 60 mg/kg twice a day, ointment 5.0 wt% once a day, 10 days) was 70%.
